Test results published in patent publication US7488712B2, “Histone deacetylase inhibitors and methods for producing the same” (Kyushu Institute of Technology, priority 2002, dated 2009).
Like-named read-outs stand apart in the source and are kept apart here. Where a SMILES comes first, the peptide text is derived from it. [ ]: non-standard residue; d: D form. Gly((CH2)5SH) = N[C@@H](CCCCCS)C(=O)O

Experiments:
[1] = Cytotoxicity test (free-LDH ratio), TIG-3; type: cell-based; details: human, TIG-3 human normal lung cells
Experimental: This was then cultured for 18 hours.

[2] = biological target: T1, human HDAC1 (Homo sapiens, UniProt Q13547); assay: In vitro HDAC inhibition activity, [3H]-acetylated histone substrate, HDAC1; type: biochemical
T1 construct: FLAG; made in house; host or cells: 293T cells (transient transfection, anti-FLAG immunoprecipitation, FLAG peptide elution)
T1 sequence (Q13547 whole entry): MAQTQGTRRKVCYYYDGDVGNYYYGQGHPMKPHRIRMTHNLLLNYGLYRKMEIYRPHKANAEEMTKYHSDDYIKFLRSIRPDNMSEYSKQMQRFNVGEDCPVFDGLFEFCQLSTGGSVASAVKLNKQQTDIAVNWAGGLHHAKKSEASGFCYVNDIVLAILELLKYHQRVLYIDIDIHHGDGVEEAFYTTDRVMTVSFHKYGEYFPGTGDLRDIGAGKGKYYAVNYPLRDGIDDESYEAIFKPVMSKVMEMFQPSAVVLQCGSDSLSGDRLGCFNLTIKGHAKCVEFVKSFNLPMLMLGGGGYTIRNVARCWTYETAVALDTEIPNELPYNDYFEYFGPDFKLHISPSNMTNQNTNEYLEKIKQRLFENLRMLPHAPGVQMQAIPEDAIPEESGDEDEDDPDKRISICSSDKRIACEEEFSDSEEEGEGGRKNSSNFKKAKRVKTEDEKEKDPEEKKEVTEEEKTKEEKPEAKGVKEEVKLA
Experimental: (§1) To measure HDAC inhibition activity, an HDAC solution was prepared as described below. 1×10^7 of 293T cells were plated on to a 100-mm dish and, after 24 hours, transfected with vectors (1 μg) expressing human HDAC1 and HDAC4 or mouse HDAC6, using LipofectAmine 2000 reagent (Life Technologies, Inc. Gaithersburg, Md.). […] The vectors were introduced for five hours in OPTI-MEM. The medium was then replaced with Dulbecco's modified Eagle's medium (DMEM), and incubated for 19 hours. The cells were washed with PBS, suspended in lysis buffer (50 mM Tris-HCl (pH7.5), 120 mM NaCl, 5 mM EDTA, and 0.5% Nonidet P-40), and sonicated. The supernatant was collected by centrifugation and nonspecific protein was removed using Protein A/G plus agarose beads (Santa Cruz Biotechnologies, Inc.). Anti-FLAG M2 antibodies (Sigma-Aldrich, Inc.) were added to the supernatant of cells expressing HDAC1 or HDAC4. Anti-HA antibodies (clone 3F10, Roche Molecular Biochemicals) were added to the supernatant of cells expressing HDAC6. Reaction in the respective mixtures was carried out at 4° C. for one hour. The resulting reaction mixtures were independently mixed with agarose beads and further reacted at 4° C. for one hour. The agarose beads were washed three times with lysis buffer and then washed once with HD buffer (20 mM Tris-HCl (pH8.0), 150 mM NaCl, 10% glycerol, and a complete protease inhibitor cocktail (Boehringer Mannheim, Germany)). […] The HDAC reaction solution was used for determining HDAC inhibition activity as shown below.
(§2) In vitro HDAC inhibition activity was evaluated as follows: A test compound was dissolved in DMSO and adjusted to 10 mM. This was used as an inhibitor stock solution. […] These reactions were stopped by adding 10 μl HCl. The [^3H] acetic acid excised by the enzyme reaction was extracted with ethyl acetate and subjected to radioactive dose measurement. As a negative control, the same procedure was carried out in which no inhibitor was added to the reaction system. The inhibition activity was expressed as a 50% inhibition concentration (“IC50 (nM)”) of the HDAC activity in the negative control (Tables 1 to 4).

[3] = in vitro; details: human, Cancer-Cell-Selective Cytotoxicity
Experimental: (§3) Human normal lung cells (TIG-3) and human uterine cancer cells (HeLa) were used to test SCOP cytotoxicity. These TIG-3 and HeLa cells were cultured in a DMEM medium comprising 10% FBS at 37° C. in the presence of 5% carbon dioxide in a steam-saturated incubator. The TIG-3 and HeLa cells were plated in 100 μl/well of the above-described medium on a 96-well microtiter plate, at a density of 30,000 cells/well and 10,000 cells/well respectively. This was then cultured for 18 hours. Test compound solution diluted with medium was added to each well and culture was continued for another 48 hours.
(§4) 30 μl of supernatant from each well was transferred to another 96-well microtiter plate (A), and the remaining supernatant was discarded. 100 μl of 0.5% Triton-X/PBS was added to each well to lyse the cells, and 30 μl was then transferred to each respective well of another 96-well microtiter plate (B). 30 μl of LDH-Cytotoxic Test (Wako) substrate solution was added to each well of these 96-well microtiter plates A and B, causing a color reaction. Once the color reaction was sufficiently progressed, it was stopped by adding 60 μl of a quenching solution. Color intensity was measured at OD560 nm using a microplate reader (Softmax). [A/(A+B)] was calculated as the free-LDH ratio. […] The higher the activity value for cancer-cell-selective cell damage (LD50 for normal cells/LD50 for cancer cells), the more that cancer-cell-selective apoptosis was induced.

[4] = test system: human uterine cancer cells (HeLa); assay: in vitro; details: 48 h
Experimental: as §3, §4

[5] = biological target: T2, mouse HDAC6 (Mus musculus, UniProt Q9Z2V5); assay: In vitro HDAC inhibition activity, [3H]-acetylated histone substrate, HDAC6; type: biochemical
T2 construct: HA; made in house; host or cells: 293T cells (transient transfection, anti-HA immunoprecipitation, HA peptide elution)
T2 sequence (Q9Z2V5 1-1149): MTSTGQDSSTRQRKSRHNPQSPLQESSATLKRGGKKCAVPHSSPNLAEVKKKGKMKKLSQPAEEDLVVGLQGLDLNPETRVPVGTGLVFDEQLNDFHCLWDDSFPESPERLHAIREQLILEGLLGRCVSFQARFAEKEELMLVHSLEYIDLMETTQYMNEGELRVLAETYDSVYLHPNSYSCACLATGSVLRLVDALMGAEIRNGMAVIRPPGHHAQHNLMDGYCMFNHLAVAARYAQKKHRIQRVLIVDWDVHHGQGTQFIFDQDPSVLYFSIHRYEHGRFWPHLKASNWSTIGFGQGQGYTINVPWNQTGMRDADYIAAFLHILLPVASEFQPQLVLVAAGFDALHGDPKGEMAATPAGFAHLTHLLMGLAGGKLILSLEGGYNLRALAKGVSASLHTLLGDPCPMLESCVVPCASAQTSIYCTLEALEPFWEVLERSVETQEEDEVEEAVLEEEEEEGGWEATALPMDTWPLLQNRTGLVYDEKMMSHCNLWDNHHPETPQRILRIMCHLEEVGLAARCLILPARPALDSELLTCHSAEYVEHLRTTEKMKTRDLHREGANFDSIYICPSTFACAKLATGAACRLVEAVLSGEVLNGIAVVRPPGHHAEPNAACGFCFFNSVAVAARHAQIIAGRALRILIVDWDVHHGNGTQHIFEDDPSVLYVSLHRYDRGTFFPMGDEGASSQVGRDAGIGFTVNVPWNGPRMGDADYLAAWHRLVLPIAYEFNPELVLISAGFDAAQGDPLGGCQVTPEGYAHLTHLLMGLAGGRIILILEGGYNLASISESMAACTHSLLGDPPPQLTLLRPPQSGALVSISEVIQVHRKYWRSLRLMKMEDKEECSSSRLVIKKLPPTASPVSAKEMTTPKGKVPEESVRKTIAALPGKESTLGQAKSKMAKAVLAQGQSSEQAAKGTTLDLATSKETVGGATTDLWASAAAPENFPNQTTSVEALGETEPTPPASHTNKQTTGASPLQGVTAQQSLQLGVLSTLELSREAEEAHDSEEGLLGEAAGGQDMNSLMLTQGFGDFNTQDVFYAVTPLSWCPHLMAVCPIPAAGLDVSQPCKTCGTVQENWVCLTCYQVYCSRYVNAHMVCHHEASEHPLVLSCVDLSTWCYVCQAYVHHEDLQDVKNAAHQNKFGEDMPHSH
Experimental: as §1, §2

[6] = biological target: T3, human HDAC4 (Homo sapiens, UniProt P56524); assay: In vitro HDAC inhibition activity, [3H]-acetylated histone substrate, HDAC4; type: biochemical
T3 construct: FLAG; made in house; host or cells: 293T cells (transient transfection, anti-FLAG immunoprecipitation, FLAG peptide elution)
T3 sequence (O15379 whole entry partner): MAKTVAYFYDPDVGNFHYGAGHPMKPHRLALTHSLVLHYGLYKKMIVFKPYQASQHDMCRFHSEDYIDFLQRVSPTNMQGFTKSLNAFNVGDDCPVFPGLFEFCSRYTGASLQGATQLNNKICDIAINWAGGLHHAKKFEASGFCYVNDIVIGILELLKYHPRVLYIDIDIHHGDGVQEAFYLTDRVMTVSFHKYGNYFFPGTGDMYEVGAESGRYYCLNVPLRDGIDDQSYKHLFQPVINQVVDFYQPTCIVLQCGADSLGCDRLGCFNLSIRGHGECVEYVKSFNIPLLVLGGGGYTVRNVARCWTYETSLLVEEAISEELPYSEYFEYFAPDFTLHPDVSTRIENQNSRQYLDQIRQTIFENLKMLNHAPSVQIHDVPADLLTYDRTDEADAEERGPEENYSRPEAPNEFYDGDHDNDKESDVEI
T3 sequence (P56524 whole entry): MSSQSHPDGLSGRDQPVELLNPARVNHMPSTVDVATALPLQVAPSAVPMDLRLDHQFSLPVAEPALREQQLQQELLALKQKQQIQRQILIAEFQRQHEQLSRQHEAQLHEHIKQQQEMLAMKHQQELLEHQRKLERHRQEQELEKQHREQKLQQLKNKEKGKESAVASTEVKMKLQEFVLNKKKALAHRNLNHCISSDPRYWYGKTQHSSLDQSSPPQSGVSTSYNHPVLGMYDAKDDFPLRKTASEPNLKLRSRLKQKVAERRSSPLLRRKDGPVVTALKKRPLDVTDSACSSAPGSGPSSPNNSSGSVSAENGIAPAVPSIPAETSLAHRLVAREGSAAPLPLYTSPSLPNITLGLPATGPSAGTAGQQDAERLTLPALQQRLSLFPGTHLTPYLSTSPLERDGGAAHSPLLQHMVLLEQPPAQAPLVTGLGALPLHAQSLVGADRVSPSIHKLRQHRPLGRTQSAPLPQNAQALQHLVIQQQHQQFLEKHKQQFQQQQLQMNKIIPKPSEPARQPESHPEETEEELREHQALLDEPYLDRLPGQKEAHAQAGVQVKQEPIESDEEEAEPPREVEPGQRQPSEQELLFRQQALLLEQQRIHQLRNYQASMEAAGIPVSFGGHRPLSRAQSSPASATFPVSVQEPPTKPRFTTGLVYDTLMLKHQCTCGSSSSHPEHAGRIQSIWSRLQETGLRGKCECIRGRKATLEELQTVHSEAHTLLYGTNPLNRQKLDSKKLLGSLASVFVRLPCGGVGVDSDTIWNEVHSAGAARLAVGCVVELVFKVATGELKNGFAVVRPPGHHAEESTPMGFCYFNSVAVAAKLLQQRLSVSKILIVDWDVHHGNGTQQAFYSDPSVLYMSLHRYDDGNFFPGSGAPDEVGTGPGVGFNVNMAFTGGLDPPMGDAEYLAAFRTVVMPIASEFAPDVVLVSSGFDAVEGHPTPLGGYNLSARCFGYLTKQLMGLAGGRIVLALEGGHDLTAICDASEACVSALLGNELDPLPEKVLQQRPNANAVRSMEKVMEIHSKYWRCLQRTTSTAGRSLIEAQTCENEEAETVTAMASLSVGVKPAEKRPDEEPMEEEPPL
Experimental: as §1, §2

[7] = test system: human wild-type p21 promoter; assay: p21 promoter-inducing activity (luciferase) in MFLL-9 cells; type: cell-based
Experimental: The HDAC inhibition activity in vivo was measured using p21 promoter-inducing activity as an index, as shown below. The MFLL-9 cells employed for the experiments stably maintained fusion genes of human wild-type p21 promoter and luciferase (Dr. B. Vogelstaein). Using phenol red-free DMEM medium comprising 10% FBS, cultivation was carried out in a steam-saturated incubator at 37° C. with 5% carbon dioxide. The MFLL-9 cells were plated at a density of 85,000 cells/well on a 96-well microtiter plate, each in 99 μl of the above-mentioned medium. These were then cultivated for six hours. One μl of test compound solution was added to each well, which was then cultured for another 18 hours.
The intensity of luminescence caused by the product of the enzyme reaction for intracellular luciferase expression was measured using Luc Lite (Packard BioScience Company). A group in which test compounds were not added was used as a negative control group. The values measured for this group were used as a standard. The activities for each concentration of added test compound were expressed relative to the above-mentioned standard value, 1.

[8] = amide bond, 12-membered ring, HATU/DIEA, DMF
[9] = Table 1, X = H (coexisting with DTT)
[10] = from H-dTyr(Me)-Ile-dPro-Ab6-OH, 9.7 mM

## CC[C@H](C)[C@@H]1NC(=O)[C@@H](Cc2ccc(OC)cc2)NC(=O)[C@H](CCCCCS)NC(=O)[C@H]2CCCN2C1=O [SCOP 152] (cyclo([Gly((CH2)5SH)][dY](Me)I[dP]))
[1]; LD50 (nM) TIG-3
  CC50 at 48 h: 6780 nM
[2]; [9]
  IC50: 4.6 nM
[3]
  selectivity ratio at 48 h: 18.3
[4]
  LD50 (nM) HeLa: 370 nM
[5]; [9]
  IC50: 1400 nM
[6]; [9]
  IC50: 2.06 nM
[7]; Table 1, X = H (coexisting with DTT), 50% of maximum active value for TSA
  EC50: 309 nM
[7]; Table 5, purified SCOP 152 under DTT-free conditions
  EC50: 3510 nM

## CC[C@H](C)[C@@H]1NC(=O)[C@@H](Cc2ccc(OC)cc2)NC(=O)[C@H](CCCCCCBr)NC(=O)[C@H]2CCCN2C1=O [cyclo(-L-Ab8-D-Tyr(Me)-L-Ile-D-Pro-)]
[8]; from H-Ab8-dTyr(Me)-Ile-dPro-OH, 10.0 mM
  ring closure, isolated yield: 55%

## CC[C@H](C)[C@@H]1NC(=O)[C@@H](Cc2ccc(OC)cc2)NC(=O)[C@H](CCCCCBr)NC(=O)[C@H]2CCCCN2C1=O [cyclo(-L-Ab7-D-Tyr(Me)-L-Ile-D-Pip-)]
[8]; from H-dTyr(Me)-Ile-dPip-Ab7-OH?, 2.0 mM
  ring closure, isolated yield: 39%

## CC[C@H](C)[C@@H]1NC(=O)[C@@H](Cc2ccc(OC)cc2)NC(=O)[C@H](CCCCCBr)NC(=O)[C@@H]2CCCN2C1=O [cyclo(-L-Ab7-D-Tyr(Me)-L-Ile-L-Pro-)]
[8]; from H-dTyr(Me)-Ile-Pro-Ab7-OH, 1.02 mM
  ring closure, isolated yield: 21%

## CC[C@H](C)[C@@H]1NC(=O)[C@@H](Cc2ccc(OC)cc2)NC(=O)[C@H](CCCCOn2nnc3cccnc32)NC(=O)[C@H]2CCCN2C1=O [cyclo(-L-Ab6-D-Tyr(Me)-L-Ile-D-Pro-)]
[8]; [10]
  ring closure, isolated yield: 23%

## CC[C@H](C)[C@@H]1NC(=O)[C@@H](Cc2ccc(OC)cc2)NC(=O)[C@H](CCCCCCCBr)NC(=O)[C@H]2CCCN2C1=O [cyclo(-L-Ab9-D-Tyr(Me)-L-Ile-D-Pro-)]
[8]; from H-Ab9-dTyr(Me)-Ile-dPro-OH, 9.4 mM
  ring closure, isolated yield: 61%

## CC[C@H](C)[C@@H]1NC(=O)[C@@H](Cc2ccc(OC)cc2)NC(=O)[C@H](CCCCOn2nnc3cccnc32)NC(=O)[C@H]2CCCN2C1=O [cyclo(-L-A(OAt)6-D-Tyr(Me)-L-Ile-D-Pro-)]
[8]; [10]
  ring closure, isolated yield: 27%

## CC[C@H](C)[C@@H]1NC(=O)[C@@H](Cc2ccc(OC)cc2)NC(=O)[C@H](CCCCCBr)NC(=O)[C@@H]2CCCCN2C1=O [cyclo(-L-Ab7-D-Tyr(Me)-L-Ile-L-Pip-)]
[8]; from H-dTyr(Me)-Ile-Pip-Ab7-OH?, 2.0 mM
  ring closure, isolated yield: 61%

## CC[C@H](C)[C@@H]1NC(=O)[C@@H](Cc2ccc(OC)cc2)NC(=O)[C@H](CCCCCSSC)NC(=O)[C@H]2CCCN2C1=O [SCOP 405, cyclo(-L-Am7(SMe)-D-Tyr(Me)-L-Ile-D-Pro-)]
[1]; 48 hours, free-LDH ratio 50%, without DTT, read-out: LD50 (nM) TIG-3
  CC50 at 48 h: 7900 nM
[2]; Table 3, hybrid, without DTT
  IC50: 119 nM
[3]; LD50 for normal cells/LD50 for cancer cells (TIG-3/HeLa), without DTT
  selectivity ratio at 48 h: 44.1
[4]
  LD50 (nM) HeLa: 179 nM
[5]; Table 3, hybrid, without DTT
  IC50: 191 nM
[6]; Table 3, hybrid, without DTT
  IC50: 405 nM
[7]; Table 3, hybrid, without DTT
  EC50: 3260 nM

## CC[C@H](C)[C@@H]1NC(=O)[C@@H](Cc2ccc(OC)cc2)NC(=O)[C@H](CCCCCBr)NC(=O)[C@H]2CCCN2C1=O [H-Ab7-dTyr(Me)-Ile-dPro-OH]
[8]; from H-Ab7-dTyr(Me)-Ile-dPro-OH, 10.2 mM
  ring closure, isolated yield: 64%
